From US10793542B2, “Hetroarylamine compounds for modulating the hedgehog pathway and preparing method and uses thereof” (DEVELOPMENT CENTER FOR BIOTECHNOLOGY, priority 2016, dated 2020)

Experiments:
Format in all cases: cell-based
[1] = molecular target: T1, Smo wild type (Homo sapiens, UniProt Q99835); experiment: Reporter assay of C3H10T1/2-Gli-Luc cells transfected with wild-type Smo, without SAG; conditions: C3H10T1/2 cells transfected with pLPCX-SMO, no SAG, 48 hr; read-out: Inhibition of C3H10T1/2-Gli-Luc-Smo-WT [IC50
T1 construct: expressed in transfected cells; host or cells: C3H10T1/2 cells (ATCC CCL-226), transient transfection with pLPCX-SMO
Experimental: (§1) A transient transfection system with a Smo wild type or a Smo D473H mutant was also used for compound screening. For the SMO inhibition experiments, cells were transfected with an additional 500 ng/well of wild-type or D473H-mutant type SMO construct (pLPCX-SMO or pLPCX-SMO-D473H). After 24 h, transfected cells were collected by trypsin treatment and re-plated in 96-well plates in an RPMI medium containing 0.5% FBS with a density of 1.5×10^4 cells/well. Compounds were dissolved in DMSO with serial dilutions and were then added to the assay plate. The assay plates were incubated at 37° C. for 48 hr.
(§2) Firefly luciferase and Renilla luciferase activity was determined using the Dual-Glo Luciferase reporter assay system (Promega) with a Victor3 plate reader (PerkinElmer Life Sciences). Firefly luciferase readings were normalized to Renilla luciferase to correct for transfection efficiency. Luminance reading for the C3H10T1/2-Gli-Luc assay was normalized based on DMSO control with SAG stimulation (100% pathway activity) and without SAG stimulation (0% pathway activity). IC50 values, defined as the inflection point of the logistic curve, were determined by nonlinear regression using the Prism 5 software (GraphPad).
(§3) The reporter assay of C3H10T1/2-Gli-Luc cells transfected with a wild-type, D473H mutant Smo mutant was carried out with the same protocol but without SAG stimulation. Luminance reading for the SMO inhibition experiments assay was normalized based on DMSO control (100% of the pathway activity) and a known Smo antagonist (ALLO-2 at 10 μM, 0% of the pathway activity).

[2] = tested on: hedgehog pathway (pGL3-7xGli-Luciferase reporter in C3H10T1/2 cells); experiment: Transient transfection of C3H10T1/2 and Gli-Luc reporter assay with SAG stimulation; conditions: Mus musculus, C3H 10T1/2, SAG 20 nM, 48 hr, read-out: Inhibition of Gli-Luc expression [IC50
Experimental: A cell-based screen for inhibitors of the hedgehog pathway was performed using a transient transfection system in C3H10T1/2 cells with pGL3-7xGli-Luciferase reporter plasmids C3H10T1/2 cells (ATCC, cat.#CCL-226) were seeded into 6-well plates at 8×10^4 cells/well in a BME medium containing 10% heat-inactivated FBS. Cells were transfected the next morning with 500 ng/well pGL3-7xGli-Luciferase reporter plasmids and 100 ng/well pRL-TK Renilla luciferase reporter plasmids (Promega)using GeneJuice transfection reagent (Novagene). After 24 h, transfected cells were collected by trypsin treatment and re-plated in 96-well plates in an RPMI medium containing 0.5% FBS with a density of 1.5×10^4 cells/well. Compounds were dissolved in DMSO with serial dilutions and were then added to the assay plate. SAG (Hh-Ag 1.3) (Santa Cruz) was added to the assay plated for a final concentration 20 nM. The assay plates were incubated at 37° C. for 48 hr.
as §2

[3] = molecular target: T2, Smo D473H mutant (Homo sapiens, UniProt Q99835, D473H); experiment: Reporter assay of C3H10T1/2-Gli-Luc cells transfected with Smo D473H mutant, without SAG; conditions: C3H10T1/2 cells transfected with pLPCX-SMO-D473H, no SAG, 48 hr; read-out: Inhibition of C3H10T1/2-Gli-Luc-Smo-D473H [IC50
T2 construct: expressed in transfected cells; host or cells: C3H10T1/2 cells (ATCC CCL-226), transient transfection with pLPCX-SMO-D473H
Experimental: as §1, §2, §3

T2 sequence (Q99835 28-787 D473H): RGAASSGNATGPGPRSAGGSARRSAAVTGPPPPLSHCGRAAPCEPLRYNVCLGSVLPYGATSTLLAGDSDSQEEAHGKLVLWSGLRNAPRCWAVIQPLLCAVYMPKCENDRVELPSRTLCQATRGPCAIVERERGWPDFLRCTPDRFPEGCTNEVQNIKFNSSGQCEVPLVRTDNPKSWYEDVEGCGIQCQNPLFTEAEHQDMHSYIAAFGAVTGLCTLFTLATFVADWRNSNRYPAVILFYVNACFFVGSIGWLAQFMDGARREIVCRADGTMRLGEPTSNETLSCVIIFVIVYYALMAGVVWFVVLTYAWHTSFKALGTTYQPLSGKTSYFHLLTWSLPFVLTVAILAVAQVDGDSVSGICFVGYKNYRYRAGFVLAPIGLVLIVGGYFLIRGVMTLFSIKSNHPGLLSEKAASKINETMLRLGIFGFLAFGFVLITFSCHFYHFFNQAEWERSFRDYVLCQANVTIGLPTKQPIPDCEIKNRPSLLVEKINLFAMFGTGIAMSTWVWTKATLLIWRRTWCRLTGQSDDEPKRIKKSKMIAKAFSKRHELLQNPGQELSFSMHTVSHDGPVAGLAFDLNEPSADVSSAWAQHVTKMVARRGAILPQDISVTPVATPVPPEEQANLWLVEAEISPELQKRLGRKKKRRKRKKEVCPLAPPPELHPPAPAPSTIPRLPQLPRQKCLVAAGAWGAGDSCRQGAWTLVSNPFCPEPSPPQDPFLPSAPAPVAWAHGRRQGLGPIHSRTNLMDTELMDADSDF
T1 sequence (Q99835 28-787): as the sequence (Q99835 28-787 D473H) above, with H446D counted along it

CSc1cnc(Nc2ccc(C(=O)Nc3cc(CN4CCN(C)CC4)ccc3C)cc2)cc1-c1ccc(F)cc1 [Compound 89, 4-((4-(4-fluorophenyl)-5-(methylthio)pyridin-2-yl)amino)-N-(2-methyl-5-((4-methylpiperazin-1-yl)methyl)phenyl)benzamide]
IC50 [1]: < 100 nM | IC50 [2]: < 100 nM | IC50 [3]: 100 to 1000 nM

CSc1cnc(Nc2ccc(C(=O)Nc3cc(CN4CCOCC4)ccc3C)cc2)nc1-c1ccc(F)cc1 [Compound 30, 4-[4-(4-Fluoro-phenyl)-5-methylsulfanyl-pyrimidin-2-ylamino]-N-(2-methyl-5-morpholin-4-ylmethyl-phenyl)-benzamide]
IC50 [1]: < 100 nM | IC50 [2]: < 100 nM | IC50 [3]: 100 to 1000 nM

CSc1cnc(Nc2ccc(C(=O)Nc3ccccc3C)cc2)nc1-c1ccccc1 [Compound 19, 4-(5-Methylsulfanyl-4-phenyl-pyrimidin-2-ylamino)-N-o-tolyl-benzamide]
IC50 [1]: 100 to 1000 nM | IC50 [2]: 100 to 1000 nM | IC50 [3]: 100 to 1000 nM

COc1cccc(OC)c1NC(=O)c1ccc(Nc2ncc(SC)c(-c3cccnc3F)n2)cc1 [Compound 9, N-(2,6-Dimethoxy-phenyl)-4-[4-(2-fluoro-pyridin-3-yl)-5-methylsulfanyl-pyrimidin-2-ylamino]-benzamide]
IC50 [1]: < 100 nM | IC50 [2]: < 100 nM | IC50 [3]: 100 to 1000 nM

CSc1cnc(Nc2ccc(C(=O)Nc3cccc(CN4CCOCC4)c3)cn2)nc1-c1ccc(OC(F)(F)F)cc1 [Compound 64, 6-[5-Methylsulfanyl-4-(4-trifluoromethoxy-phenyl)-pyrimidin-2-ylamino]-N-(3-morpholin-4-ylmethyl-phenyl)-nicotinamide]
IC50 [1]: < 100 nM | IC50 [2]: < 100 nM | IC50 [3]: < 100 nM

CCN(CC)Cc1ccc(C)c(NC(=O)c2ccc(Nc3ncc(SC)c(-c4ccc(OC(F)(F)F)cc4)n3)nc2)c1 [Compound 66, N-(5-Diethylaminomethyl-2-methyl-phenyl)-6-[5-methylsulfanyl-4-(4-trifluoromethoxy-phenyl)-pyrimidin-2-ylamino]-nicotinamide]
IC50 [1]: < 100 nM | IC50 [2]: < 100 nM | IC50 [3]: 100 to 1000 nM

Cc1ccc(CN2CCOCC2)cc1NC(=O)c1ccc(Nc2ncc(N)c(-c3ccc(OC(F)(F)F)cc3)n2)cc1 [Compound 88, 4-((5-amino-4-(4-(trifluoromethoxy)phenyl)pyrimidin-2-yl)amino)-N-(2-methyl-5-(morpholinomethyl)phenyl)benzamide]
IC50 [1]: < 100 nM | IC50 [2]: < 100 nM | IC50 [3]: < 100 nM

CCOc1cnc(Nc2ccc(C(=O)Nc3cc(CN(CC)CC)ccc3C)cc2)nc1-c1ccc(OC(F)(F)F)cc1 [Compound 74, N-(5-Diethylaminomethyl-2-methyl-phenyl)-4-[5-ethoxy-4-(4-trifluoromethoxy-phenyl)-pyrimidin-2-ylamino]-benzamide]
IC50 [1]: < 100 nM | IC50 [2]: < 100 nM | IC50 [3]: 100 to 1000 nM

CSc1cnc(Nc2ccc(C(=O)Nc3ccccc3)cc2)nc1-c1ccc(C#N)cc1 [Compound 3, 4-[4-(4-Cyano-phenyl)-5-methylsulfanyl-pyrimidin-2-ylamino]-N-phenyl-benzamide]
IC50 [1]: 100 to 1000 nM | IC50 [2]: 100 to 1000 nM | IC50 [3]: 100 to 1000 nM

CCN(CC)Cc1ccc(C)c(NC(=O)c2ccc(Nc3ncc(SC)c(-c4ccc(F)cc4)n3)c(F)c2)c1 [Compound 53, N-(5-Diethylaminomethyl-2-methyl-phenyl)-3-fluoro-4-[4-(4-fluoro-phenyl)-5-methylsulfanyl-pyrimidin-2-ylamino]-benzamide]
IC50 [1]: < 100 nM | IC50 [2]: < 100 nM | IC50 [3]: < 100 nM

COc1ccc(CN2CCOCC2)cc1NC(=O)c1ccc(Nc2ncc(SC)c(-c3ccc(OC(F)(F)F)cc3)n2)c(F)c1 [Compound 58, 3-Fluoro-N-(2-methoxy-5-morpholin-4-ylmethyl-phenyl)-4-[5-methylsulfanyl-4-(4-trifluoromethoxy-phenyl)-pyrimidin-2-ylamino]-benzamide]
IC50 [1]: < 100 nM | IC50 [2]: < 100 nM | IC50 [3]: 100 to 1000 nM

CSc1cnc(Nc2ccc(C(=O)Nc3cccc(CN4CCOCC4)c3)cc2F)nc1-c1ccc(OC(F)(F)F)cc1 [Compound 44, 3-Fluoro-4-[5-methylsulfanyl-4-(4-trifluoromethoxy-phenyl)-pyrimidin-2-ylamino]-N-(3-morpholin-4-ylmethyl-phenyl)-benzamide]
IC50 [1]: < 100 nM | IC50 [2]: < 100 nM | IC50 [3]: < 100 nM

CSc1cnc(Nc2ccc(C(=O)Nc3cc(CN4CCCCC4)ccc3C)cc2F)nc1-c1ccc(F)cc1 [Compound 42, 3-Fluoro-4-[4-(4-fluoro-phenyl)-5-methylsulfanyl-pyrimidin-2-ylamino]-N-(2-methyl-5-piperidin-1-ylmethyl-phenyl)-benzamide]
IC50 [1]: < 100 nM | IC50 [2]: < 100 nM | IC50 [3]: 100 to 1000 nM

CSc1cnc(Nc2ccc(C(=O)Nc3cc(CN(C)C)ccc3C)cc2)cc1-c1ccc(OC(F)(F)F)cc1 [Compound 83, N-(5-Dimethylaminomethyl-2-methyl-phenyl)-4-[5-methylsulfanyl-4-(4-trifluoromethoxy-phenyl)-pyridin-2-ylamino]-benzamide]
IC50 [1]: < 100 nM | IC50 [2]: < 100 nM | IC50 [3]: < 100 nM

CSc1cnc(Nc2ccc(C(=O)Nc3cc(CN4CCOCC4)ccc3C)cc2)nc1-c1ccc(OC(F)(F)F)cc1 [Compound 24, N-(2-Methyl-5-morpholin-4-ylmethyl-phenyl)-4-[5-methylsulfanyl-4-(4-trifluoromethoxy-phenyl)-pyrimidin-2-ylamino]-benzamide]
IC50 [1]: < 100 nM | IC50 [2]: < 100 nM | IC50 [3]: < 100 nM

CCOc1cnc(Nc2ccc(C(=O)Nc3cc(CN(CC)CC)ccc3C)cc2)nc1-c1ccc(F)cc1 [Compound 77, N-(5-Diethylaminomethyl-2-methyl-phenyl)-4-[5-ethoxy-4-(4-fluoro-phenyl)-pyrimidin-2-ylamino]-benzamide]
IC50 [1]: < 100 nM | IC50 [2]: < 100 nM | IC50 [3]: 100 to 1000 nM

CSc1cnc(Nc2ccc(C(=O)Nc3cc(CN(C)C)ccc3C)cc2)nc1-c1ccc(C#N)cc1 [Compound 34, 4-[4-(4-Cyano-phenyl)-5-methylsulfanyl-pyrimidin-2-ylamino]-N-(5-dimethylaminomethyl-2-methyl-phenyl)-benzamide]
IC50 [1]: 100 to 1000 nM | IC50 [2]: < 100 nM | IC50 [3]: 100 to 1000 nM

CSc1cnc(Nc2ccc(C(=O)Nc3cc(CN4CCOCC4)ccc3C)cc2)nc1-c1ccc(C(F)(F)F)nc1 [Compound 68, N-(2-Methyl-5-morpholin-4-ylmethyl-phenyl)-4-[5-methylsulfanyl-4-(6-trifluoromethyl-pyridin-3-yl)-pyrimidin-2-ylamino]-benzamide]
IC50 [1]: < 100 nM | IC50 [2]: 100 to 1000 nM | IC50 [3]: 100 to 1000 nM

COc1cccc(C)c1NC(=O)c1ccc(Nc2ncc(SC)c(-c3ccc(OC(F)(F)F)cc3)n2)cc1 [Compound 25, N-(2-Methoxy-6-methyl-phenyl)-4-[5-methylsulfanyl-4-(4-trifluoromethoxy-phenyl)-pyrimidin-2-ylamino]-benzamide]
IC50 [1]: 100 to 1000 nM | IC50 [2]: 100 to 1000 nM | IC50 [3]: 100 to 1000 nM

CSc1cnc(Nc2ccc(C(=O)Nc3ccccc3C)cc2)nc1-c1cccnc1F [Compound 11, 4-[4-(2-Fluoro-pyridin-3-yl)-5-methylsulfanyl-pyrimidin-2-ylamino]-N-o-tolyl-benzamide]
IC50 [1]: 100 to 1000 nM | IC50 [2]: 100 to 1000 nM | IC50 [3]: 100 to 1000 nM
